{
  "source": "paper PMC7076352",
  "about": "(Pharmaceutics, 2020)",
  "key": {"CYP2C19 [1]": {"tested_on": "CYP2C19", "test": "In vitro cocktail CYP450 activity assay in rat liver microsomes, CYP2C19 (omeprazole probe)", "settings": "rat", "how_it_was_run": "(§1)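 Probe substrates were pooled in a single microsomal incubation, with each substrate concentration optimized to keep metabolite formation linear. Metabolites were quantified against isotope-labelled internal standards: hydroxybupropion-[D6] (OHBUP-[D6]) and 5 nM 4′-hydroxydiclofenac-[^13C6] (OHDIC-[^13C6]).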"}, "CYP2C19 [2]": {"tested_on": "CYP2C19", "settings": "read-out: Reported Km; probe substrate OME, CYP2C19, literature range ref 9; cited from earlier work"}, "CYP2C9 [3]": {"tested_on": "CYP2C9", "test": "in vitro", "settings": "Sprague-Dawley, rat, microsomes, pH 7.4", "how_it_was_run": "as §1"}, "CYP2C9 [4]": {"tested_on": "CYP2C9", "settings": "read-out: Reported IC50; positive inhibitor of CYP2C9, literature ref 17,18; cited from earlier work"}, "CYP2B6 [5]": {"tested_on": "CYP2B6", "test": "in vitro", "settings": "microsomes", "how_it_was_run": "as §1"}, "CYP2B6 [6]": {"tested_on": "CYP2B6", "settings": "positive inhibitor of CYP2B6, literature ref 12,13; read-out: Reported IC50; cited from earlier work"}, "CYP2D6 [7]": {"tested_on": "CYP2D6", "test": "in vitro", "settings": "rat, pH 7.4", "how_it_was_run": "as §1"}, "CYP3A4": {"tested_on": "CYP3A4", "test": "in vitro", "settings": "Sprague-Dawley, rat, microsomes, pH 7.4", "how_it_was_run": "as §1"}, "[8]": {"tested_on": "CYP450s (isozyme not named)", "test": "In vitro cocktail CYP450 activity assay, isozyme not given", "format": "in vitro ADME, SD rat", "settings": "Sprague-Dawley, rat, pH 7.4", "procedure": "(OHBUP-[D6]) and 5 nM 4′-hydroxydiclofenac-[^13C6] (OHDIC-[^13C6]) as internal standards (ISs)."}, "CYP2E1": {"target": "CYP2E1 (Rattus norvegicus, UniProt P05182)", "sequence (P05182 whole entry)": "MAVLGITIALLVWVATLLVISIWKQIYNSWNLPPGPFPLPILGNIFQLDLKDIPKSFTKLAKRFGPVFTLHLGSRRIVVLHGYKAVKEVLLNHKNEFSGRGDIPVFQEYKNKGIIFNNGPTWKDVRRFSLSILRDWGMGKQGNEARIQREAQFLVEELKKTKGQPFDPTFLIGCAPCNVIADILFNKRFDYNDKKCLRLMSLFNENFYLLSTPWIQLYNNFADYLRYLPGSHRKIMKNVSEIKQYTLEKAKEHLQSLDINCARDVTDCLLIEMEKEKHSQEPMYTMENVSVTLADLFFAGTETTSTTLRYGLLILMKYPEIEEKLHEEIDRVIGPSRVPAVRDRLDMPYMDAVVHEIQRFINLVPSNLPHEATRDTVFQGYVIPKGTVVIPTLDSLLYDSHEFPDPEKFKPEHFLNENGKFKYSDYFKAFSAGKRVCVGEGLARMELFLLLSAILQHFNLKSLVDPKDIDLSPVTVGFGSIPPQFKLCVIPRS", "settings": "IC50 CYP2E1, single components; RLM 0.2 mg/mL, 15 min, triplicate, mean ± SD"}, "CYP2D6 [9]": {"tested_on": "CYP2D6", "settings": "read-out: Reported Km; probe substrate DEX, CYP2D6, literature range ref 9; cited from earlier work"}, "not read": {"substrate": "CCOc1ccc(NC(C)=O)cc1", "test": "not read", "settings": "other: probe substrate, PHE to dEtPHE, CYP1A2, n = 3; pH 7.4; 37.0 °C"}},
  "note": "Read-outs that look alike come from different tables or passages of the source.",
  "data": [
    {"molecule": "COc1ccc2[nH]c([S+]([O-])Cc3ncc(C)c(OC)c3C)nc2c1", "note": "(stereo not shown) [OME, omeprazole, reference compound]", "values": [
      {"measurement": "Km at 15 min", "setting": "CYP2C19 [1]; SD, pooled rat liver microsomes, pH 7.4, probe omeprazole", "result": "7.8 ± 1.65", "unit": "µM"},
      {"measurement": "Km", "setting": "CYP2C19 [2]", "result": "17 to 26", "unit": "µM"}
    ]},
    {"molecule": "Nc1ccc(S(=O)(=O)Nc2ccnn2-c2ccccc2)cc1", "note": "[SUL, sulfaphenazole, reference compound]", "values": [
      {"measurement": "IC50", "setting": "CYP2C9 [3]", "result": "[…]"},
      {"measurement": "IC50", "setting": "CYP2C9 [4]", "result": "[…]"}
    ]},
    {"molecule": "S=P(N1CC1)(N1CC1)N1CC1", "note": "[TRI, triethylenethiophosphoramide, reference compound]", "values": [
      {"measurement": "IC50", "setting": "CYP2B6 [5]", "result": "0.75 ± 0.0262", "unit": "µM"},
      {"measurement": "IC50", "setting": "CYP2B6 [6]", "result": "1.75 to 26", "unit": "µM"}
    ]},
    {"molecule": "O=c1c(O)c(-c2ccc(O)c(O)c2)oc2cc(O)cc(O)c12", "note": "[A16, quercetin]", "values": [
      {"measurement": "IC50", "setting": "CYP2C19 [1]; Sprague-Dawley, microsomes, pH 7.4", "result": "46.4 ± 7.05", "unit": "µM"},
      {"measurement": "IC50", "setting": "CYP2B6 [5]; Sprague-Dawley, rat, pH 7.4", "result": "68.5 ± 9.88", "unit": "µM"},
      {"measurement": "IC50", "setting": "CYP2C9 [3]", "result": "13.5 ± 2.41", "unit": "µM"},
      {"measurement": "IC50", "setting": "CYP2D6 [7]; Sprague-Dawley, microsomes", "result": "31.1 ± 3.91", "unit": "µM"},
      {"measurement": "IC50", "setting": "CYP3A4", "result": "[…]"},
      {"measurement": "IC50", "setting": "[8]", "result": "≤ 15", "unit": "µM"},
      {"measurement": "IC50", "setting": "CYP2E1", "result": "20.3 ± 4.13", "unit": "µM"}
    ]},
    {"molecule": "COc1ccc2c(c1)[C@]13CCCC[C@@H]1[C@H](C2)N(C)CC3", "note": "[DEX, dextromethorphan, reference compound]", "values": [
      {"measurement": "Km", "setting": "CYP2D6 [7]; SD", "result": "0.62 ± 0.08", "unit": "µM"},
      {"measurement": "Km", "setting": "CYP2D6 [9]", "result": "0.44 to 8.5", "unit": "µM"}
    ]},
    {"molecule": "CYP1A2 (Rattus norvegicus) (protein) MAFSQYISLAPELLLATAIFCLVFWVLRGTRTQVPKGLKSPPGPWGLPFIGHMLTLGKNPHLSLTKLSQQYGDVLQIRIGSTPVVVLSGLNTIKQALVKQGDDFKGRPDLYSFTLITNGKSMTFNPDSGPVWAARRRLAQDALKSFSIASDPTSVSSCYLEEHVSKEANHLISKFQKLMAEVGHFEPVNQVVESVANVIGAMCFGKNFPRKSEEMLNLVKSSKDFVENVTSGNAVDFFPVLRYLPNPALKRFKNFNDNFVLFLQKTVQEHYQDFNKNSIQDITGALFKHSENYKDNGGLIPQEKIVNIVNDIFGAGFETVTTAIFWSILLLVTEPKVQRKIHEELDTVIGRDRQPRLSDRPQLPYLEAFILEIYRYTSFVPFTIPHSTTRDTSLNGFHIPKECCIFINQWQVNHDEKQWKDPFVFRPERFLTNDNTAIDKTLSEKVMLFGLGKRRCIGEIPAKWEVFLFLAILLHQLEFTVPPGVKVDLTPSYGLTMKPRTCEHVQAWPRFSK", "values": [
      {"measurement": "Km", "setting": "not read", "result": "65.26 ± 14.35", "unit": "µM"}
    ]}
  ]
}
